{"source": "patent US6803186B2", "about": "“Compositions and methods for increasing amino acid absorption in mammals” (The IAMS Company, priority 2001, dated 2004)", "key": {"canine PepT1 (cPepT1) [1]": {"biological_target": "T1, canine PepT1 (cPepT1) (Canis lupus familiaris, UniProt Q8WMX5)", "T1 construct": "endogenous in cells; host or cells: MDCK (Madin-Darby Canine Kidney) cells, whole-cell [3H]-GlySar uptake", "T1 sequence (Q8WMX5 1-708)": "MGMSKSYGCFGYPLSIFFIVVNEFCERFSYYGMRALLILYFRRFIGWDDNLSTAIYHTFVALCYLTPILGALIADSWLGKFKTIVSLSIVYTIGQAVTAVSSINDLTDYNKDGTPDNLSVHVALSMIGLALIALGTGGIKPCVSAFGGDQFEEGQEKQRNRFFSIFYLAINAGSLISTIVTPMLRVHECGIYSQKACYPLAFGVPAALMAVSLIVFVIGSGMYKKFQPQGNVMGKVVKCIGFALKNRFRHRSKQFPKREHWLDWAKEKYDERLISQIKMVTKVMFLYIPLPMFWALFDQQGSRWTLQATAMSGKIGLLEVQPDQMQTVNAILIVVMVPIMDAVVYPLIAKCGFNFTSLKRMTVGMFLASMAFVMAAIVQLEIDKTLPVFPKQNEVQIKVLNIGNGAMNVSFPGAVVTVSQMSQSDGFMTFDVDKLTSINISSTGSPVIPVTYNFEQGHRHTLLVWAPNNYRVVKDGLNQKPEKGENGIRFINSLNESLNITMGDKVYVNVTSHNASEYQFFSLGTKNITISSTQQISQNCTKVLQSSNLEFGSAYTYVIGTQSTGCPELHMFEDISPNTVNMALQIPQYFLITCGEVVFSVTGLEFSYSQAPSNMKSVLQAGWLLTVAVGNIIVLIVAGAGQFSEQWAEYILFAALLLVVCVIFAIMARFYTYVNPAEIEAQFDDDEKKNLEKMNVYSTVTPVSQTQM", "assay": "Inhibition of H+-dependent 100 μM GlySar uptake by MDCK cells cultured in LHM", "format": "cell-based", "conditions": "100 μM GlySar", "method": "Characteristic hallmarks of low affinity H^+/peptide cotransport activity, classically defined using membrane vesicles of several species, and more recently by functional expression studies using human, rat, and rabbit PepT1 cDNA, is the recognition of some, but not all, β-lactam antibiotics. […] To determine whether MDCK cPepT1 activity shared these functional features, the uptake of 100 μM GlySar in the absence and presence of pH 7.5 and pH 6.0 buffer, and, in pH 6.0 buffers, the presence of 1 mM additional GlySar (self-inhibitor control), 3 mM Penicillin-G, 30 μM cefadroxil, or 3 mM cefadroxil was compared (FIG. 13).\nOther hallmarks of PepT1 function are the decreased ability of Gly-containing peptides to inhibit GlySar, in proportion to their length, and sensitivity to inhibition by carnosine (β-Ala-His).\nAccordingly, the following general regimen was used to perform a series of experiments that evaluated the relative abilities of candidate di-(primarily) and tri-peptides to inhibit GlySar uptake by endogenously expressed cPepT1 in MDCK cells:\n1. Sixty thousand cells/well were plated into collagen-coated 24-well trays and cultured at 37° C. in an atmosphere of 95% air/5% CO2 in DMEM/10% FCS that contained antibiotics for 1 day.\n2. The media was removed and cells were cultured in LHM/10% FCS/antibiotics for 1 day.\n3. The media was removed and cells cultured in LHM/10% FCS (no antibiotics) for 20 h.\n4. The media was removed and cells cultured for 30 min in air at 37° C. in depletion medium (25 mM Hepes/Tris (pH 7.5), 140 mM NaCl, 5.4 mM KCl, 1.8 mM CaCl2, 0.8 mM MgSO4, and 5 mM glucose, to normalize intracellular nutrient pools.\n5. Transport was initiated by replacing depletion medium with uptake medium (depletion medium adjusted to pH 6.0 or kept at pH 7.4) that contained 100 μM GlySar (at a specific activity of 5 μCi/mL, with [^3H]-GlySar supplying 2.88% of total GlySar substrate) and (or) 1 mM of inhibiting peptide.\nIn total, 23 inhibitory peptides and 2 drug compounds were screened using this protocol."}, "canine PepT1 (cPepT1) [2]": {"biological_target": "T1, canine PepT1 (cPepT1)", "assay": "Substrate regulation of H+-dependent GlySar uptake capacity of MDCK cells cultured in DMEM (Example 3, Trials 1 and 2)", "format": "cell-based", "conditions": "10 mM in DMEM", "method": "All cells were plated (60,000/2 cm^2 well) and cultured (95% air/5% CO2, 37° C.) for 24 h in Dulbecco's Modified Eagle Media/10% fetal calf serum (FCS)/1%Antibiotic/Antimicrobial solution (ABAM) (DMEM media). Following these initial common culture conditions, cells then were cultured in DMEM, or DMEM that contained 10 mM of Camosine, GlyPhe, Phe, or Gly. Media were changed every 24 h. Media treatments (n=8) were as follows:\nThe measurement of [^3H]Glysarcosine uptake was performed by using a 24-well cluster tray method (Kilberg M S. Measurement of amino acid transport by hepatocytes in suspension and monolayer culture. Methods Enzym 1989; 173:564-575. Matthews J C, Aslanian A, McDonald K K, Yang W, Malandro M S, Novak D A, Kilberg M S. An expression system for mammalian amino acid transport using a stably maintained episomal vector. Anal Biochem 1997; 254:208-214), and used in Examples 1 and 2. Cells were cultured for 30 min in air at 37° C. in depletion medium (25 mM Hepes/Tris (pH 7.5), 140 mM NaCl, 5.4 mM KCl, 1.8 mM CaCl2, 0.8 mM MgSO4, and 5 mM glucose), to normalize intracellular nutrient pools before transport. The transport assays are initiated by replacing depletion medium with uptake medium (Depletion medium adjusted to pH 6.0) that contained 100 μM GlySar (5 μCi/mL, with [^3H]-GlySar supplying 2.88% of total GlySar). After a 30 minute incubation period, transport was terminated with four rinses of 4° C. depletion medium (pH 7.5). Two hundred and twenty μL of 10% trichloroacetic acid was added to each well, and the radioactivity of the supernatant quantified by liquid scintillation counting. The cells of each well are solubilized in 0.2 N NaOH/0.2% SDS and the protein quantified by using the modified Lowry assay, using bovine serum as a standard. Id. Peptide uptake will be reported as pmol* mg^−1 protein* 30 min^−1. Uptake measurements were taken after 24, 48, and 72 hours of culture in treatment media.\nThe MDCK cell line was maintained as described previously in the Methods section of Trial 1. […]"}, "PepT1": {"biological_target": "T2, PepT1 (Homo sapiens, UniProt P46059)", "T2 sequence (P46059 1-708)": "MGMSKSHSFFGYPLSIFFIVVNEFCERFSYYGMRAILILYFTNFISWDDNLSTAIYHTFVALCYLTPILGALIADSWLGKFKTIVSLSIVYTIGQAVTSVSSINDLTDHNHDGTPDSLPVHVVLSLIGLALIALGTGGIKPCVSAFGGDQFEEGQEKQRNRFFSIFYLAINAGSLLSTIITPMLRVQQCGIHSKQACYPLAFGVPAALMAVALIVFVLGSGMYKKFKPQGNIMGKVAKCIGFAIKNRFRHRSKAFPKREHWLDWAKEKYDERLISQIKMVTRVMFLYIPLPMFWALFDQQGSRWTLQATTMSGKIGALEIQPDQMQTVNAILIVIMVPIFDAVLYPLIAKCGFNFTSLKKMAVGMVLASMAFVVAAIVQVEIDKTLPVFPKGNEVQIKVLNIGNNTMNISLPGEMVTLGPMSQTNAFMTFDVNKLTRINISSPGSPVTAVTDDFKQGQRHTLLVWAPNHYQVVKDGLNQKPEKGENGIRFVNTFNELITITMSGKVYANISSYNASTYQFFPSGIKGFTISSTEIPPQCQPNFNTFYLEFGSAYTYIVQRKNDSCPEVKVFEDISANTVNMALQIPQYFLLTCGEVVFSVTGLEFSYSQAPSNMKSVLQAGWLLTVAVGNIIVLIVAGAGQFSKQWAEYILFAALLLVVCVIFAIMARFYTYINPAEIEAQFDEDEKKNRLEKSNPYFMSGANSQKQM", "conditions": "read-out: Ki of cefadroxil inhibition of GlySar uptake by PepT1; cited from earlier work"}, "PepT2": {"biological_target": "T3, PepT2 (Homo sapiens, UniProt Q16348)", "T3 sequence (Q16348 1-729)": "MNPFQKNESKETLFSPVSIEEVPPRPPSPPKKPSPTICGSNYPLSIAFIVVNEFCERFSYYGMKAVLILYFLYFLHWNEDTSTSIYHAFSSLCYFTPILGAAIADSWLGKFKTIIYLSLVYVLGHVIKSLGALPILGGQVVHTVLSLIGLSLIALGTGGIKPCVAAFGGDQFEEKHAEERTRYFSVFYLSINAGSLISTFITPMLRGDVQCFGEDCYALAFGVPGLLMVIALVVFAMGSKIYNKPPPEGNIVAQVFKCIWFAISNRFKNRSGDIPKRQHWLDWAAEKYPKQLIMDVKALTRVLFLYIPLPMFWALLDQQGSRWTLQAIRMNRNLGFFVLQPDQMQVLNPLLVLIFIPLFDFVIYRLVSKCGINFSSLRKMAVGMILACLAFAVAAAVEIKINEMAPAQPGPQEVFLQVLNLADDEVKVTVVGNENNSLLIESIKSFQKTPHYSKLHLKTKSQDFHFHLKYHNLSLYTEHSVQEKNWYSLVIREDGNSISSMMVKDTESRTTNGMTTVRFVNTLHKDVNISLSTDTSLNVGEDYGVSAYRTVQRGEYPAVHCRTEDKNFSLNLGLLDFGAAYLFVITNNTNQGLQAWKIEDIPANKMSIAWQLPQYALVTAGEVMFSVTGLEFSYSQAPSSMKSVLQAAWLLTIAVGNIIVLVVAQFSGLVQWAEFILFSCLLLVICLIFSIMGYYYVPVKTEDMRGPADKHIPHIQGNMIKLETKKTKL", "conditions": "read-out: Ki of cefadroxil inhibition of PepT2 transport of GlySar; cited from earlier work"}, "canine PepT1 (cPepT1) [3]": {"system": "canine PepT1 (cPepT1)", "assay": "Influence of dexamethasone, insulin and IGF-I on H+-dependent GlySar uptake by MDCK cells (Trials 3A, 3B)", "format": "cell-based", "conditions": "for effect on H+-dependent GlySar uptake capacity: 5 or 500 nM in DMEM, 4 h of culture", "method": "MDCK cells were maintained as described in Trial 1, except that cells were cultured for only 1 d before transport trials were performed. Following initial and common culture conditions, cells were cultured in a “nutrient depleted” buffer (Hepes/Tris (pH 7.5),140 mM NaCl, 5.4 mM KCl, 1.8 mM CaCl2, 0.8 mM MgSO4) that contained 5 mM glucose as an energy source, but that lacked amino acid or vitamin sources. In contrast, cells cultured in DMEM, or DMEM that contained 5 nM Dex, 500 nM Dex, 5 nM insulin, or 500 nM insulin, were adequately nourished. Media treatments (n=4) were as follows:\nThe measurement of [^3H]Glysarcosine uptake was performed by using the 24-well cluster tray method as previously described in the Methods section of Trial 1. Peptide uptake is reported as pmol* mg^−1 protein*30 min^−1. Uptake measurements were taken after 30 min and 4 h of culture in treatment media.\nTrial 3B was conducted in the same manner as described for Trail 3A, except that cells were cultured in DMEM or DMEM that contained 1 nM IGF-1, 5 nM IGF-1, 25 nM IGF-1, or 100 nM IGF-1. Uptake measurements were taken after 30 min and 4 h of culture time."}}, "data": [{"compound": "NCCC(=O)N[C@@H](Cc1cnc[nH]1)C(=O)O", "note": "[Carnosine, Carnosine (β-AlaHis)]", "values": [{"measurement": "% inhibition of H+-dependent GlySar uptake", "setting": "canine PepT1 (cPepT1) [1]; 1 mM extracellular substrate, pH 6.0, 30 min", "value": 50, "unit": "%"}, {"measurement": "increase of GlySar uptake capacity over DMEM-cultured cells", "setting": "canine PepT1 (cPepT1) [2]; 72 h of culture", "value": 23, "unit": "%"}, {"measurement": "increase of GlySar uptake capacity over DMEM-cultured cells", "setting": "canine PepT1 (cPepT1) [2]; 216 h of culture", "value": 291, "unit": "%"}]}, {"compound": "CC1=C(C(=O)O)N2C(=O)[C@@H](NC(=O)[C@H](N)c3ccc(O)cc3)[C@H]2SC1", "note": "[Cefadroxil]", "values": [{"measurement": "% inhibition of H+-dependent GlySar uptake", "setting": "canine PepT1 (cPepT1) [1]; 30 μM cefadroxil", "value": "not inhibited"}, {"measurement": "inhibition at 30 µM", "setting": "canine PepT1 (cPepT1) [1]; MDCK, 30 μM cefadroxil", "value": 0, "unit": "%"}, {"measurement": "inhibition at 3000 µM", "setting": "canine PepT1 (cPepT1) [1]; MDCK, 3 mM cefadroxil", "value": "~76", "unit": "%"}, {"measurement": "Ki", "setting": "PepT1", "value": 3, "unit": "mM"}, {"measurement": "Ki", "setting": "PepT2", "value": 0.03, "unit": "mM"}]}, {"compound": "C[C@@H]1C[C@H]2[C@@H]3CCC4=CC(=O)C=C[C@]4(C)[C@@]3(F)[C@@H](O)C[C@]2(C)[C@@]1(O)C(=O)CO", "note": "[dexamethasone]", "values": [{"measurement": "effect on H+-dependent GlySar uptake capacity", "setting": "canine PepT1 (cPepT1) [3]", "value": "no effect"}]}, {"compound": "IGF-I: Insulin-like Growth factor I", "values": [{"measurement": "stimulation of H+-dependent GlySar uptake", "setting": "canine PepT1 (cPepT1) [3]; increasing amounts of IGF-I (1 to 100 nM) in DMEM", "value": "no significant stimulation"}]}, {"compound": "insulin: insulin (negative control)", "values": [{"measurement": "effect on H+-dependent GlySar uptake capacity", "setting": "canine PepT1 (cPepT1) [3]", "value": "no effect"}]}]}
